Assay results taken from patent US12600796B2, “Constructs for chimeric antigen receptors” (Carisma Therapeutics Inc., priority 2020, dated 2026).

B1: CD40L: Recombinant CD40 ligand (Peprotech), a CD40 agonist (protein, UniProt P29965 113-261, looked up)
CD40 ligand, soluble form: MQKGDQNPQIAAHVISEASSKTTSVLQWAEKGYYTMSNNLVTLENGKQLTVKRQGLYYIYAQVTFCSNREASSQAPFIASLCLKSPGRFERILLRAANTHSSAKPCGQQSIHLGGVFELQPGASVFVNVTDPSQVSHGTGFTSFGLLKL

Legend:
Human macrophages [1] = test: Viability, CAR expression and M1/M2 markers of HER2 CAR mRNA-electroporated macrophages treated with interferons; assay type: cell-based; conditions: for M1 phenotype (based on CD86 expression): FIG. 121E; for M2 markers (based on CD163 expression): FIG. 121F
Experimental: Human macrophages were electroporated with HER2 CAR mRNA comprising m6AGCap1 and PsU modifications. Cells were cultured with cytokines that induce an M1 phenotype such as IFN-alpha, IFN-beta, IFN-gamma, IFN-gamma plus lipopolysaccharide (LPS), TNF-alpha, IL-6 or a STING ligand (STING-L) for up to 48 hours and then cytokines were washed off and fresh media was added. CAR expression and M1 marker expression were measured on days 2 and 7 after transfection. Fluorescent labeled HER2+ breast cancer cells (CRL2351) were co-cultured with HER2 CAR macrophages two days after the macrophages were transfected. Cancer cell growth was monitored via its fluorescence on an Incucyte® live imaging microscope every four hours. The Effector (CAR macrophage) to Target (cancer cell) ratio was 5:1.
Five different mRNA modifications were also tested to determine if interferon treatment differentially affected macrophages transfected with mRNA comprising different modifications. Human macrophages were electroporated with HER2 CAR mRNA comprising different mRNA modifications. CAR expression and M1 markers were detected by Flow Cytometry (Attune) on day four after electroporation. Day 4 CAR macrophage cells were then co-cultured with a Nuc-Light labeled, HER2+ breast cancer cell line (CRL2351) at an Effector (CAR macrophage) to Target (cancer cell) ratio of 5:1. Cancer cell growth was monitored via its fluorescence on an Incucyte® live imaging microscope every four hours.
Human macrophages were electroporated with 300 nM CAR mRNA comprising m6AGCap1 and PsU modifications. Cells were cultured with 20 ng/mL IFNs for 24 hours and then the cells were washed to remove cytokines. CAR expression was detected by Flow Cytometry (Attune) on day 2 after transfection. Cells were then co-cultured with a Nuc-Light labeled, HER2+ breast cancer cell line (CRL2351) at the Effector to Target ratio of 3:1. Cancer cell growth was monitored via its fluorescence on an Incucyte® live imaging microscope. CAR expression and M1 markers in macrophages were detected by Flow Cytometry (Attune) on day 7 after transfection.

[2] = test system: HER2+ breast cancer cells (CRL2351); test: Cytokine secretion of interferon-treated HER2 CAR macrophages co-cultured with cancer cells (MSD); assay type: cell-based, human; conditions: E:T 3:1, supernatant at 48 hours; FIG. 126
Experimental: Human macrophages were electroporated with 150 nM HER2 CAR mRNA comprising m6AGCap1 and PsU modifications. HER2+ breast cancer cells (CRL2351) were co-cultured with CAR macrophages after the macrophages were transfected with the CAR mRNA at an Effector (CAR macrophage) to Target (cancer cell) ratio of 3:1. Supernatant was collected 48 hours after the cancer cells and macrophages were co-cultured and cytokine levels were measured using a Meso Scale Discovery (MSD) instrument.

Human macrophages [3] = test: mCherry mRNA expression in transfected macrophages (Incucyte); assay type: cell-based; conditions: different doses, one day; FIG. 129
Experimental: Human macrophages were transfected with mCherry mRNA comprising m6AGCap1 and PsU or N1mPsU modifications and were then cultured for one day with different doses of IFN-γ. mCherry expression was monitored on an Incucyte® live imaging microscope.
In order to determine whether an RNaseL inhibitor could rescue IFN-γ-induced instability of transfected mRNA, human macrophages were treated with 1 μM sunitinib (an RNaseL inhibitor) two hours prior to the transfection of mCherry mRNA comprising m6AGCap1 and PsU modifications. Transfected cells were then cultured for one day with different dosages of IFN-γ. mCherry expression was monitored on an Incucyte® live imaging microscope.
The effect of another RNaseL inhibitor (RLI or ABCE1) was also tested to further validate the concept. Human macrophages were co-transfected with mRNA encoding mCherry comprising m6AGCap 1 and PsU modifications and with mRNA encoding ABCE1.

[4] = test system: CRL-2351 cells expressing nuclear GFP; test: Tumor killing by macrophages and Her2-Zeta CAR macrophages primed with plate-coated agonist proteins (Incucyte); assay type: cell-based, human; conditions: plate-coated protein, 3 h priming; FIGS. 5A, 6A, 7A
Experimental: (§1) To generate Her2-Zeta CAR expressing macrophages, primary human macrophages were suspended in EP buffer (MaxCyte) containing 300 nM mRNA (TriLink) at a concentration of 90×10^6 cells/mL. 100 μL of cell mixture was added to an electroporation cassette (OC100×2; MaxCyte) and electroporated using the Experimental T cell 1 setting. Cells were removed from the cassette, plated in 3 mL of TexMACS media (Miltenyi Biotech) containing 20% FBS (Gibco) on UpCell plates (Thermo Scientific), and incubated overnight at 37 C and 5% CO2.
(§2) Recombinant CD40 ligand (Peprotech), 4-1BB ligand (Enzo Life Sciences), and 4-1BB receptor (Peprotech) were resuspended in molecular grade water to a stock concentration of 100 μg/mL. Stock solution was then used to create working solutions in PBS ranging from 2-0.002 μg/mL. 100 uL of working solution was added to wells in a 96-well plate and left at room temperature for 4 h.
Plates were removed from the incubator and left at room temperature for 30 min. Cells were detached from plate, counted using the NC-200 automated cell counter (Chemomtech), and re-suspended in TexMACS media with 10% FBS. […] Cell lysis was detected using Incucyte® analysis (Essen Bioscience). Tumor cell death was calculated by integrated GFP intensity per well relative to time 0.

[5] = test system: primary human macrophages; test: M1/M2 surface marker expression after priming with agonist proteins (flow cytometry); assay type: cell-based; conditions: mRNA CAR macrophages, 3 days on coated wells; FIGS. 5B, 6B, 7B
Experimental: as §1, §2
For detection of cell surface proteins, macrophages were plated onto wells coated with agonist molecules in a final volume of 200 uL TexMACS media+10% FBS+10 ng/mL GM-CSF and incubated for 3 days at 37 C and 5% CO2. Cells were incubated in 300 μL Accutase (Sigma) for 30 min and transferred to 96-well round bottom plate for staining. Cells were incubated in FACS buffer containing 20 μg/mL Her2-His for 20 min at RT, followed by incubation in Human TruStain FcX for 10 min at RT. […]

Molecule | M1 phenotype (based on CD86 expression) (Human macrophages [1]) | M2 markers (based on CD163 expression) (Human macrophages [1]) | secretion of IL-6, IL-8 and TNFα [2] | mCherry mRNA expression (Human macrophages [3]) | tumor killing ability of macrophages and CAR macrophages [4] | M1 phenotype (M1 and M2 markers) [5]
IFN-α | induction of an M1 phenotype | reduction of M2 markers | increased secretion of the cytokines IL-6, IL-8 and TNFα |  |  | 
IFN-γ: interferon cytokine that induces an M1 phenotype | induction of an M1 phenotype | reduction of M2 markers | increased secretion of the cytokines IL-6, IL-8 and TNFα | reduced mCherry mRNA expression |  | 
B1 |  |  |  |  | significantly improved the tumor killing ability | induced an M1 phenotype
